Test systems include HOP-62; HL-60; OVCAR-8; 786-0; SK-MEL-2; SF-268; OVCAR-5; OVCAR-3; HOP-92; Hs-578T; K562; RXF 393; NCI-H226; OVCAR-4; SK-MEL-5; BT-549; SN12C; UACC-257; SF-539.
Holding throughout (test): inhibition of tumour cell growth, NCI panel, 48 h

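Grown in 96-well plates, cells were treated for 48 hours with each compound at five concentrations. Insufficient inhibition: endpoint recorded as highest concentration tested. The concentration for 50% growth inhibition is given as GI50.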 The source made the active and inactive calls. No stated cut-off is given here; in the data, active = GI50 up to about 1.1 µM and inactive = higher.

The text below walks through data of ChEMBL document CHEMBL1201862, “PubChem BioAssay data set” (2004).

Take `O=C1c2cccnc2-c2nccc3c2c1nc1cc(Br)ccc13`: the GI50 is 0.155 µM (active) with HOP-62; 0.0405 µM (active) with HL-60; 0.0659 µM (active) in the assay on OVCAR-8; 0.0713 µM (active) in the assay on 786-0; 0.165 µM (active) in the assay with SK-MEL-2; 0.134 µM (active) with SF-268. Also, the GI50 in the assay with OVCAR-5 is 0.24 µM (active); in the assay with OVCAR-3 it was 0.124 µM (active); with HOP-92, 0.438 µM (active); in the assay on Hs-578T, 0.204 µM (active); in the assay on K562 it was 0.033 µM (active); with RXF 393 it was 0.0946 µM (active). In addition, the GI50 is 0.216 µM (active) with NCI-H226; 0.148 µM (active) in the assay with OVCAR-4; 0.132 µM (active) in the assay with SK-MEL-5; 0.25 µM (active) in the assay on BT-549; 0.101 µM (active) in the assay on SN12C; 0.226 µM (active) with UACC-257. The GI50 in the assay with SF-539 is 0.279 µM (active).
`CC(=O)Nc1ccc(-c2nc3ccccc3s2)cc1I`: the GI50 is 15.6 µM (inactive) in the assay on HOP-62; > 100 µM (inactive) in the assay with HL-60; 18.5 µM (inactive) with OVCAR-8; 18.5 µM (inactive) with 786-0; 50.4 µM (inactive) in the assay with SK-MEL-2; 33.4 µM (inactive) in the assay on SF-268. The GI50 was 11.7 µM (inactive) in the assay with OVCAR-3; 26.4 µM (inactive) with HOP-92; 39.5 µM (inactive) in the assay on Hs-578T; > 58.1 µM (inactive) in the assay with K562; 14.8 µM (inactive) with RXF 393; 7.96 µM (inactive) with NCI-H226. For the same compound, the GI50 was 8.79 µM (inactive) with OVCAR-4; > 100 µM (inactive) in the assay on SK-MEL-5; 25.5 µM (inactive) in the assay with BT-549; 36.6 µM (inactive) with SN12C; > 100 µM (inactive) in the assay on UACC-257; 14.3 µM (inactive) in the assay on SF-539.
For the compound `Oc1cccc2cc(Cl)cnc12`, the GI50 is 5.77 µM (inactive) with HOP-62; 1.08 µM (active) in the assay with HL-60; 3.7 µM (inactive) in the assay with OVCAR-8; 23.6 µM (inactive) in the assay with 786-0; 40.8 µM (inactive) in the assay with SK-MEL-2; 3.85 µM (inactive) in the assay with SF-268. Moreover, the GI50 in the assay on OVCAR-5 was 28 µM (inactive); with OVCAR-3, 2.99 µM (inactive); in the assay with HOP-92, 43.2 µM (inactive); in the assay with Hs-578T, 6.93 µM (inactive); with K562 it was 3.87 µM (inactive); in the assay on RXF 393 it was 12.3 µM (inactive). The GI50 in the assay with NCI-H226 was 27.4 µM (inactive); in the assay on OVCAR-4 it was 3.38 µM (inactive); in the assay on SK-MEL-5 it was 8.41 µM (inactive); in the assay with BT-549, 22.6 µM (inactive); with SN12C, 7.33 µM (inactive); with UACC-257, 6.27 µM (inactive). Also, the GI50 with SF-539 is 10.3 µM (inactive).
With `CC(=O)/C(=C(/Br)I)c1ccccc1`, the GI50 is 14.1 µM (inactive) in the assay on HOP-62; 1.95 µM (inactive) in the assay on HL-60; 11.6 µM (inactive) with OVCAR-8; 9.04 µM (inactive) in the assay on 786-0; 4.82 µM (inactive) with SK-MEL-2; 12 µM (inactive) in the assay on SF-268. Further, the GI50 was 18.1 µM (inactive) in the assay on OVCAR-5; 6.49 µM (inactive) with OVCAR-3; 10.5 µM (inactive) in the assay with HOP-92; 30.7 µM (inactive) in the assay with Hs-578T; 2.82 µM (inactive) in the assay with K562; 3.36 µM (inactive) in the assay with RXF 393. For the same compound, the GI50 was 7.45 µM (inactive) in the assay with NCI-H226; 12.5 µM (inactive) with OVCAR-4; 7.71 µM (inactive) in the assay on SK-MEL-5; 1.97 µM (inactive) with BT-549; 5.26 µM (inactive) in the assay with SN12C; 12.6 µM (inactive) in the assay with UACC-257. Also, the GI50 in the assay with SF-539 was 16.6 µM (inactive).
Regarding `CCCCSc1n/c(=C\c2ccc(N(C)C)cc2)c2nnnn12`, the GI50 with HOP-62, in the assay on HL-60, in the assay on OVCAR-8, in the assay on 786-0, with SK-MEL-2 and in the assay with SF-268 was > 100 µM (inactive) throughout. The GI50 in the assay with OVCAR-5, in the assay on OVCAR-3, in the assay on HOP-92, with Hs-578T, with K562 and in the assay with RXF 393 was > 100 µM (inactive) in each case. Also, the GI50 in the assay with NCI-H226, in the assay on OVCAR-4, in the assay with BT-549, in the assay on SN12C, in the assay on UACC-257 and in the assay with SF-539 was > 100 µM (inactive) each time.
With `CC1=NN(C(=O)c2ccccc2O)C(c2ccccc2Cl)C1C(=O)Nc1ccccc1` (centres undefined), the GI50 in the assay with HOP-62 was 0.262 µM (active); with HL-60, 0.161 µM (active); with OVCAR-8, 0.0986 µM (active); in the assay on 786-0, < 0.0457 µM (active); in the assay with SK-MEL-2 it was 4.74 µM (inactive); in the assay with SF-268, < 0.01 µM (active). The GI50 with OVCAR-5 was 0.458 µM (active); in the assay with OVCAR-3 it was 0.143 µM (active); in the assay with HOP-92, > 100 µM (inactive); in the assay with Hs-578T, < 0.01 µM (active); with K562 it was < 0.0235 µM (active); with RXF 393, 0.0553 µM (active). Further, the GI50 is 0.0614 µM (active) in the assay on NCI-H226; 0.098 µM (active) in the assay with OVCAR-4; 0.167 µM (active) with SK-MEL-5; < 0.0256 µM (active) in the assay on BT-549; 0.0224 µM (active) with SN12C; 0.283 µM (active) in the assay with UACC-257. The GI50 with SF-539 was < 0.0298 µM (active).
For `COC1CC(NC(=O)C(F)(F)F)C(OC(C)=O)C(C)O1` (centres undefined), the GI50 in the assay on HOP-62, in the assay on HL-60, with OVCAR-8, with 786-0, in the assay with SK-MEL-2 and in the assay on SF-268 was > 100 µM (inactive) throughout. Also, the GI50 in the assay on OVCAR-5 is > 100 µM (inactive); in the assay with OVCAR-3, > 100 µM (inactive); in the assay on HOP-92, 72.1 µM (inactive); in the assay with Hs-578T, > 100 µM (inactive); in the assay with K562 it was > 100 µM (inactive); with RXF 393, > 100 µM (inactive). For the same compound, the GI50 is 66.5 µM (inactive) with NCI-H226; > 100 µM (inactive) in the assay on OVCAR-4; > 100 µM (inactive) in the assay with SK-MEL-5; > 100 µM (inactive) in the assay on BT-549; > 100 µM (inactive) with SN12C; > 100 µM (inactive) with UACC-257. In addition, in the assay with SF-539, the GI50 is > 100 µM (inactive).
As to `CC(C)(C)NCC(O)c1ccc(O)c(CO)n1` (centres undefined), the GI50 in the assay on HOP-62, with HL-60, with OVCAR-8, with 786-0, in the assay on SK-MEL-2 and in the assay on SF-268 was > 100 µM (inactive) throughout. The GI50 with OVCAR-5, with OVCAR-3, in the assay with HOP-92, in the assay with Hs-578T, in the assay with RXF 393 and in the assay on NCI-H226 was > 100 µM (inactive) throughout. In addition, the GI50 in the assay on OVCAR-4, with SK-MEL-5, in the assay with BT-549, in the assay on SN12C, in the assay with UACC-257 and in the assay on SF-539 was > 100 µM (inactive) each time.
Turning to `CCOC(=O)C(C)(Cc1ccc(O)cn1)NC(=O)c1ccccc1` (centres undefined), the GI50 in the assay on HOP-62, in the assay on HL-60, with OVCAR-8, in the assay on 786-0, in the assay with SK-MEL-2 and in the assay on SF-268 was > 100 µM (inactive) each time. Also, the GI50 with OVCAR-5 was > 100 µM (inactive); with OVCAR-3, > 100 µM (inactive); in the assay on HOP-92, 47 µM (inactive); in the assay on Hs-578T, > 100 µM (inactive); in the assay with K562 it was > 100 µM (inactive); with RXF 393 it was > 100 µM (inactive). Besides, the GI50 in the assay with NCI-H226, with OVCAR-4, in the assay with SK-MEL-5, with BT-549, in the assay on UACC-257 and in the assay on SF-539 was > 100 µM (inactive) each time.
As for `CNC(=O)OCc1nc(N=[N+]=[N-])n(C)c1COC(=O)NC`, the GI50 is 52.7 µM (inactive) in the assay on HOP-62; 17.5 µM (inactive) in the assay with HL-60; 58.9 µM (inactive) in the assay on OVCAR-8; > 10 µM (inactive) in the assay with 786-0; 26.7 µM (inactive) in the assay on SK-MEL-2; 32.1 µM (inactive) in the assay on SF-268. Further, the GI50 is > 100 µM (inactive) in the assay on OVCAR-5; 39.2 µM (inactive) in the assay on OVCAR-3; 25.3 µM (inactive) in the assay with HOP-92; > 100 µM (inactive) in the assay with Hs-578T; 46.5 µM (inactive) in the assay on K562; 21.7 µM (inactive) in the assay on RXF 393. Besides, the GI50 with NCI-H226 was > 100 µM (inactive); in the assay with OVCAR-4 it was 37.1 µM (inactive); in the assay on SK-MEL-5, > 10 µM (inactive); with BT-549, > 10 µM (inactive); in the assay on SN12C it was 55.7 µM (inactive); in the assay with UACC-257, > 100 µM (inactive). In addition, the GI50 with SF-539 was 54.5 µM (inactive).
For the compound `O=CN1CCN(C(=O)c2ccc(Cl)cc2Cl)C1=S`, the GI50 in the assay on HOP-62 was > 100 µM (inactive); in the assay with HL-60 it was 20.4 µM (inactive); with OVCAR-8 it was > 100 µM (inactive); with 786-0, 30.7 µM (inactive); in the assay on SK-MEL-2 it was > 100 µM (inactive); in the assay on SF-268, 26.1 µM (inactive). Moreover, the GI50 with OVCAR-5 is > 100 µM (inactive); with OVCAR-3 it was 40.3 µM (inactive); in the assay with HOP-92 it was 34.2 µM (inactive); in the assay on Hs-578T, 32.4 µM (inactive); in the assay with K562 it was 85.5 µM (inactive); in the assay on RXF 393, 29.3 µM (inactive). The GI50 was > 100 µM (inactive) in the assay on NCI-H226; > 100 µM (inactive) in the assay on OVCAR-4; > 100 µM (inactive) in the assay with BT-549; 43 µM (inactive) in the assay on SN12C; > 100 µM (inactive) in the assay with UACC-257; > 100 µM (inactive) in the assay on SF-539.
